{
  "source": "patent US9889135B2",
  "about": "“Companion diagnostic for CDK4 inhibitors” (Memorial Sloan-Kettering Cancer Center, priority 2013, dated 2018)",
  "key": {"[1]": {"tested_on": "seven RB-positive patient derived WD/DDLS cell lines", "experiment": "cell cycle distribution, propidium iodine and flow cytometry", "type": "cell-based, human", "conditions": "two days of treatment", "method": "Percentages annotated on graphs represent the mean of three or more independent experiments. Cells were stained with BrdU (20 μM for two hours) or annexin V as previously described (22, 48). […] was determined by staining with propidium iodine and FACS analyses (49)."}, "[2]": {"tested_on": "seven WD/DDLS cell lines", "experiment": "cell size, phalloidin staining and flow cytometry", "type": "cell-based, human", "conditions": "continued treatment, all seven cell lines", "method": "FIGS. 10A-C. […] Cells were plated at a concentration of 25,000 per well in a 4-well chamber slides (Lab-Tek) and treated for seven days with drug or shRNA as described above and stained for senescence-associated β-galactosidase (Cell Signaling kit #9860). Cell number was quantitated by DAPI staining and β-galactosidase staining quantitated as a proportion of total cells. Senescence associated heterochromatic foci were quantitated after cells were fixed with 4% paraformaldehyde, permeabilized with 0.1% Triton, blocked with 2% FBS, and stained with antibodies against HP1γ (1:5000 dilution, 2MOD-1G6 Millipore). Senescent cells were identified by immunofluorescence after treatment of slides with anti-mouse secondary antibodies and quantitation of focal SAHF as a percent of total cells (Leica Upright Confocal SP5 confocal microscope). Actin was marked using phalloidin staining (1:500, Invitrogen) and cells were counterstained with DAPI. Cell area was measured by with Metamorph software to calculate relative area per cell."}, "[3]": {"tested_on": "Flag-tagged MDM2 in LS8817 cells", "experiment": "turnover of FLAG-tagged MDM2 and C464A mutant", "type": "cell-based, human", "description": "FIG. 21A-B. Turnover of MDM2 is regulated post-translationally. […] Tubulin was used as a loading control. This experiment was repeated twice with similar results. (B) LS8817 cells transduced with either a FLAG-tagged MDM2 or a FLAG-tagged C464A mutant of MDM2 were selected and the turnover of the FLAG-tagged protein measured by immunoblot after protein synthesis was blocked with cycloheximide for the indicated amount of time. A representative immunoblot is shown and the mean and standard deviation was compiled from two independent experiments."}, "[4]": {"tested_on": "LS8817 cells with enforced MDM2 expression", "experiment": "PD0332991 response with enforced MDM2 expression", "type": "cell-based, human", "method": "(A) Immunoblot. […] Tubulin was a loading control. (B) Immunoblot. […] This experiment was carried out with three different pools of transductants multiple times (*p<0.05, **p<0.01). r^2 is calculated as the best-fit correlation.\nFIG. 17. […] Cells transduced with an RFP expressing virus were used as a control.\nFor MDM2 and Rb expression, cells were infected with a lentivirus (pLOC, Open Biosystems) encoding either MDM2, MDM2 V75A, MDM2 I440A, MDM2 C464A, MDM2 Δ254-264, MDM2 L468A, MDM2 Δ464-471, MDM2 P476A, RB, LP-RB, PSM-RB or RFP. Transduced cells were selected for in media containing 3 μg/ml blasticidin and selection was maintained throughout the experiment."}, "[5]": {"tested_on": "LS8817 cells", "experiment": "PD0332991 induced senescence after knock down of p53 or INK4A products", "type": "cell-based, human", "method": "LS8817 cells were infected with lentiviruses expressing either a scrambled (shSCR) or two independent p53 targeting (shp53a and shp53d2) shRNAs. […] The accumulation of senescence associated β-galactosidase (top), and the expression of MDM2 and p53 were determined by immunoblot (bottom). Coomassie staining of the gel indicated equivalent loading."}, "[6]": {"tested_on": "MDM2 in glioma (U87MG, U251, SNB19, DBTRG-05MG) and breast cancer (MDA453, T47D, ZR-75-1, and MCF7) cells", "experiment": "MDM2 levels in glioma and breast cancer cell lines", "type": "cell-based", "conditions": "eight glioma and breast cancer cell lines", "description": "FIG. 19A-C. Senescence associated with the downregulation of MDM2 is p53 and INK4 independent. […] This experiment was repeated three times with similar results in both LS8817 and LS141. […] The p53 mutational status of these cell lines (WT, wild type; R273H and L194F, missense mutations; if-DEL, in-frame deletion of 30 nucleotides at amino acid 368) were obtained from the p53 mutation database and the RIKEN bioresource databank and is consistent with the detection of p21 by immunoblot. (C) SNB19 cells, a p53 mutant and INK4A deficient cell, was transduced with the mutants described in panel A and their effect on senescence determined.\nAntibodies against CDK4 (3F121), MDM2 (SMP-14), total RB (IFS), Cyclin A (H432), p16 (C20), and p53 (Bp53-12), were obtained from Santa Cruz Biotechnology, phospho-Rb 780 (#9307) from Cell Signalling, and ARF (3642) from Abeam. Treated cells were lysed with buffer composed of 50 mM Tris-HCl, pH7.4, 250 mM NaCl, 5 mM EDTA, 0.5% NP40, 2 mM PMSF, and supplemented with protease inhibitors. Eighty micrograms of protein were resolved by SDS-PAGE and transferred to PVDF membranes. Membranes were incubated overnight with antibodies (1:1000)."}, "[7]": {"tested_on": "WD/DDLS", "experiment": "phase II clinical trial (NCT01209598), tumor response by CT scan, RECIST", "type": "in vivo, human", "method": "FIG. 7. […] GAPDH serves as a loading control.\nAntibodies against CDK4 (3F121), MDM2 (N-20 and SMP14), total RB (IF8), Cyclin A (H432), p16 (C20), p53 (DO-1 and Bp53-12), tubulin (C20) and FLAG (M2) were obtained from Santa Cruz Biotechnology, phospho-Rb 780 (#9307) from Cell Signalling, and ARF (3642) from Abeam, HAUSP (A300-033A) from Bethyl Laboratories. Treated cells were lysed with buffer composed of 50 mM Tris-HCl, pH7.4, 250 mM NaCl, 5 mM EDTA, 0.5% NP40, 2 mM PMSF, and supplemented with protease inhibitors. Eighty micrograms of protein were resolved by SDS-PAGE and transferred to PVDF membranes. Membranes were incubated overnight with antibodies (1:1000). […] Pre-treatment biopsies were collected within two weeks of the first dose and post-treatment biopsies collected after at last three weeks of treatment. Extracts were prepared in 50 mM Tris-HCl, pH7.4, 150 mM NaCl, 1 mM EDTA, 1% NP40, 0.25% sodium deoxycholate and supplemented with mini-protease inhibitor cocktail (Roche). Tumor response was assessed by reference radiologist by CT scan every six weeks for 36 weeks, and every 12 weeks thereafter."}, "[8]": {"tested_on": "WD/DDLS", "conditions": "cited from earlier work"}, "[9]": {"tested_on": "RB-positive WD/DDLS", "conditions": "two patients with RB-positive WD/DDLS; cited from earlier work"}},
  "data": [
    {"smiles": "CC(=O)c1c(C)c2cnc(Nc3ccc(N4CCNCC4)cn3)nc2n(C2CCCC2)c1=O", "note": "[PD0332991]", "values": [
      {"measurement": "cell cycle distribution", "setting": "[1]", "value": "accumulating in G0/G1"},
      {"measurement": "cell size / cell volume", "setting": "[2]", "value": "enlarged"},
      {"measurement": "stability of wild type Flag-tagged MDM2", "setting": "[3]", "value": "still turned over"},
      {"measurement": "stability of the C464A mutant of MDM2", "setting": "[3]; Flag-tagged E3 ligase-deficient mutant", "value": "did not affect"},
      {"measurement": "cell cycle exit (phosphorylated Rb, cyclin A, BrdU incorporation)", "setting": "[4]", "value": "not affected"},
      {"measurement": "p53 levels", "setting": "[4]", "value": "still reduced"},
      {"measurement": "SA-β-gal accumulation", "setting": "[4]; seven days", "value": "failed to accumulate"},
      {"measurement": "PD0332991 induced senescence", "setting": "[5]; p16 and Arf knocked down", "value": "not affected"},
      {"measurement": "SA-β-gal positive cells", "setting": "[5]; p53 deficient cells (two independent shRNAs)", "value": "still accumulated"},
      {"measurement": "MDM2 levels", "setting": "[6]", "value": "decreased"},
      {"measurement": "patients who performed well on the drug (RECIST)", "setting": "[7]; of nine patients with pre- and post-treatment biopsies", "value": "five"},
      {"measurement": "tumor size decrease", "setting": "[7]; patient 1, RECIST response, as of March 2013, 125 mg daily for 21 days, seven days of rest", "value": "greater than 60%"},
      {"measurement": "patients with prolonged stable disease", "setting": "[8]; 30 WD/DDLS patients", "value": 66, "unit": "%"},
      {"measurement": "time at which one patient achieved a RECIST partial response", "setting": "[8]; one patient", "value": 74, "unit": "weeks"},
      {"measurement": "myelosuppression", "setting": "[8]; patients", "value": "common"},
      {"measurement": "tolerability", "setting": "[8]; patients", "value": "generally well-tolerated"},
      {"measurement": "decrease in tumor size", "setting": "[8]; three other patients, favorable response that did not meet RECIST", "value": "at least 10%"},
      {"measurement": "clinical response", "setting": "[9]", "value": "prolonged stable disease lasting several years"}
    ]}
  ]
}
